Experimental data as given in patent publication US7378417B2, “Pyrazolo-pyrimidine derivatives” (Hoffmann-La Roche Inc., priority 2004, dated 2008).

Key:
rat mGlu2 receptor = molecular target: T1, rat mGlu2 receptor (Rattus norvegicus, UniProt P31421); assay: [3H]-LY354740 binding on mGlu2 transfected CHO cell membranes; conditions: displacement of 10 nM [3H]-LY354740, CHO cell membranes, room temperature, 1 hour
T1 construct: expressed in transfected cells; host or cells: CHO cells, stably transfected with pcD1mGR2 (G-418 selection); membranes used
Description: [^3H]-LY354740 Binding on mGlu2 Transfected CHO Cell Membranes. Transfection and Cell Culture
cDNA encoding the rat mGlu2 receptor protein in pBluescript II was subcloned into the eukaryotic expression vector pcDNA I-amp from Invitrogen Ltd (Paisley, UK). This vector construct (pcD1mGR2) was co-transfected with a psvNeo plasmid encoding the gene for neomycin resistance, into CHO cells by a modified calcium phosphate method described by Chen & Okayama (1988). The cells were maintained in Dulbecco's Modified Eagle medium with reduced L-glutamine (2 mM final concentration) and 10% dialysed foetal calf serum from Gibco-Invitrogen (Carlsbad, Calif., USA). Selection was made in the presence of G-418 (1000 ug/ml final) and […]. Clones were identified by reverse transcription of 5 μg total RNA, followed by PCR using mGlu2 receptor specific primers 5′-[…]-3′ and 5′-[…]-3′ in 60 mM Tris HCl (pH 10), 15 mM (NH4)2SO4, 2 mM MgCl2, 25 units/ml Taq Polymerase with 30 cycles annealing at 60° C. for 1 min., extention at 72° C. for 30 s, and 1 min. 95° C. denaturation.
Cells, cultured as above, were harvested and washed three times with cold PBS and frozen at −80° C. The pellet was resuspended in cold 20 mM HEPES-NaOH buffer containing 10 mM EDTA (pH 7.4), and homogenised with a polytron (Kinematica, AG, Littau, Switzerland) for 10 s at 10 000 rpm. After centrifugation for 30 min. at 4° C., the pellet was washed once with the same buffer, and once with cold 20 mM HEPES-NaOH buffer containing 0.1 mM EDTA, (pH 7.4). Protein content was measured using the micro BCA method from Pierce-Perbio (Rockford, Ill., USA) using bovine serum albumin as standard.
After thawing, the membranes were resuspended in cold 50 mM Tris-HCl buffer containing 2 mM MgCl2 (pH 7) (binding buffer). The final concentration of the membranes in the assays was 25 μg protein/ml. Inhibition experiments were performed with membranes incubated with 10 nM [^3H]-LY354740 at room temperature, for 1 hour, in presence of various concentrations of the compound to be tested. Following the incubations, membranes were filtered onto Whatmann GF/B glass fiber filters and washed 5 times with cold binding buffer. Non specific binding was measured in the presence of 10 μM DCG IV. After transfer of the filters into plastic vials containing 10 ml of Ultima-gold scintillation fluid from Perkin-Elmer (Boston, Mass., USA), the radioactivity was measured by liquid scintillation in a Tri-Carb 2500 TR counter (Packard, Zürich, Switzerland).
The inhibition curves were fitted with a four parameter logistic equation giving IC50 values, and Hill coefficients.

T1 sequence (P31421 19-872): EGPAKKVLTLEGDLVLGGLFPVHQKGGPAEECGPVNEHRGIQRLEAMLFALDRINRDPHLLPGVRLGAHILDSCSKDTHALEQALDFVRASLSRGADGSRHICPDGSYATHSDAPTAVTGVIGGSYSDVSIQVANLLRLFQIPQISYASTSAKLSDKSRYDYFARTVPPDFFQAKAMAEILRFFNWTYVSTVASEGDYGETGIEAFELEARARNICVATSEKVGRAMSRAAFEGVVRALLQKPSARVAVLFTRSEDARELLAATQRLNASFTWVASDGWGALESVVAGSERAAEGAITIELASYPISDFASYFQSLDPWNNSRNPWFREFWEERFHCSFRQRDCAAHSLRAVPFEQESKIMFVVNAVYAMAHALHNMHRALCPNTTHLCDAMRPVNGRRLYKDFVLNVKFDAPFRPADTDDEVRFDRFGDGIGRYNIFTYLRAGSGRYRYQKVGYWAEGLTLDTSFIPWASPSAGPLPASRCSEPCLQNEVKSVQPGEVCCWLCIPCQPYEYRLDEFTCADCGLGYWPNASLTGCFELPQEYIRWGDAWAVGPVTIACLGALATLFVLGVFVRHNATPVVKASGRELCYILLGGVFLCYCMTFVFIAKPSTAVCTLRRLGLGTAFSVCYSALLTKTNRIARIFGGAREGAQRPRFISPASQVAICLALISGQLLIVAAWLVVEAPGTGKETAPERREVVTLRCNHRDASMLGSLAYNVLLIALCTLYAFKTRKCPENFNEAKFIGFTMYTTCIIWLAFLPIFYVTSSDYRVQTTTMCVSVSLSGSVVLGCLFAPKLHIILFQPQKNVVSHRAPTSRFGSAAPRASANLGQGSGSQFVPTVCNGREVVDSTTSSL

Question: Which Ki (rat mGlu2 receptor) does the source give for `O=C(Nc1cccc(S(=O)(=O)N2CCOCC2)c1)c1cnn2c(C(F)(F)F)cc(-c3ccc(C(F)(F)F)cc3)nc12` [Example 1, 7-Trifluoromethyl-5-(4-trifluoromethyl-phenyl)-pyrazolo[1,5-a]pyrimidine-3-carboxylic acid[3-(morpholine-4-sulfonyl)-phenyl]-amide] here?
Answer: 30 nM

Question: And the melting point?
Answer: 233 °C

Question: For `O=C(Nc1cccc(S(=O)(=O)NCC(F)(F)F)c1)c1cnn2c(C(F)F)cc(-c3ccc(C(F)(F)F)cc3)nc12` [Example 52, 7-Difluoromethyl-5-(4-trifluoromethyl-phenyl)-pyrazolo[1,5-a]pyrimidine-3-carboxylic acid [3-(2,2,2-trifluoro-ethylsulfamoyl)-phenyl]-amide], which melting point is on record?
Answer: 257 °C

Question: With `O=C(Nc1cccc(S(=O)(=O)NCC2CC2)c1)c1cnn2c(C(F)F)cc(-c3ccc(C(F)(F)F)cc3)nc12` [Example 73, 7-Difluoromethyl-5-(4-trifluoromethyl-phenyl)-pyrazolo[1,5-a]pyrimidine-3-carboxylic acid [3-(cyclopropylmethyl-sulfamoyl)-phenyl]-amide] as the molecule, how does the melting point read?
Answer: 238 °C

Question: With `O=C(Nc1cccc(S(=O)(=O)Nc2ccccc2)c1)c1cnn2c(C(F)F)cc(-c3ccc(C(F)(F)F)cc3)nc12` [Example 74, 7-Difluoromethyl-5-(4-trifluoromethyl-phenyl)-pyrazolo[1,5-a]pyrimidine-3-carboxylic acid(3-phenylsulfamoyl-phenyl)-amide] as the molecule, how does the Ki (rat mGlu2 receptor) read?
Answer: 67 nM

Question: What about the melting point of the same molecule?
Answer: 228 °C

Question: Which results are given for `NS(=O)(=O)c1cccc(NC(=O)c2cnn3c(C(F)F)cc(-c4ccc(C(F)(F)F)c(OCC(F)(F)F)c4)nc23)c1` [Example 79, 7-Difluoromethyl-5-[3-(2,2,2-trifluoro-ethoxy)-4-trifluoromethyl-phenyl]-pyrazolo[1,5-a]pyrimidine-3-carboxylic acid(3-sulfamoyl-phenyl)-amide]?
Answer: Ki (rat mGlu2 receptor): 11 nM; melting point: 241 °C

Question: For `O=C(Nc1cccc(S(=O)(=O)NCCO)c1)c1cnn2c(C(F)F)cc(-c3ccc(C(F)(F)F)cc3)nc12` [Example 83, 7-Difluoromethyl-5-(4-trifluoromethyl-phenyl)-pyrazolo[1,5-a]pyrimidine-3-carboxylic acid [3-(2-hydroxy-ethylsulfamoyl)-phenyl]-amide], which melting point is on record?
Answer: 231 °C

Question: Which Ki (rat mGlu2 receptor) does the source give for `O=C(Nc1cccc(S(=O)(=O)NCc2ccncc2)c1)c1cnn2c(C(F)F)cc(-c3ccc(C(F)(F)F)cc3)nc12` [Example 88, 7-Difluoromethyl-5-(4-trifluoromethyl-phenyl)-pyrazolo[1,5-a]pyrimidine-3-carboxylic acid {3-[(pyridin-4-ylmethyl)-sulfamoyl]-phenyl}-amide] here?
Answer: 15 nM

Question: And the melting point?
Answer: 221 °C

Question: With `O=C(Nc1cccc(S(=O)(=O)CCO)c1)c1cnn2c(C(F)F)cc(-c3ccc(C(F)(F)F)cc3)nc12` [Example 90, 7-Difluoromethyl-5-(4-trifluoromethyl-phenyl)-pyrazolo[1,5-a]pyrimidine-3-carboxylic acid [3-(2-hydroxy-ethanesulfonyl)-phenyl]-amide] as the molecule, how does the melting point read?
Answer: 205 °C

Question: Which melting point does the source give for `O=C(Nc1cccc(S(=O)(=O)NCc2cccnc2)c1)c1cnn2c(C(F)F)cc(-c3ccc(C(F)(F)F)cc3)nc12` [Example 106, 7-Difluoromethyl-5-(4-trifluoromethyl-phenyl)-pyrazolo[1,5-a]pyrimidine-3-carboxylic acid {3-[(pyridin-3-ylmethyl)-sulfamoyl]-phenyl}-amide] here?
Answer: 256 °C

Question: What does the source list for `CN(C)CCNS(=O)(=O)c1cccc(NC(=O)c2cnn3c(C(F)F)cc(-c4ccc(C(F)(F)F)cc4)nc23)c1` [Example 144, 7-Difluoromethyl-5-(4-trifluoromethyl-phenyl)-pyrazolo[1,5-a]pyrimidine-3-carboxylic acid[3-(2-dimethylamino-ethylsulfamoyl)-phenyl]-amide]?
Answer: Ki (rat mGlu2 receptor): 7 nM; melting point: 184 °C
